Results taken from ChEMBL document CHEMBL1149374, “Synthesis and biological evaluation of gem-diamine 1-N-iminosugars related to L-iduronic acid as inhibitors of heparan sulfate 2-O-sulfotransferase” (Bioorg Med Chem Lett, 2006).

Biological target: T1, Heparan sulfate 2-O-sulfotransferase 1 (Cricetulus longicaudatus) (UniProt O08889)
T1 sequence (whole entry): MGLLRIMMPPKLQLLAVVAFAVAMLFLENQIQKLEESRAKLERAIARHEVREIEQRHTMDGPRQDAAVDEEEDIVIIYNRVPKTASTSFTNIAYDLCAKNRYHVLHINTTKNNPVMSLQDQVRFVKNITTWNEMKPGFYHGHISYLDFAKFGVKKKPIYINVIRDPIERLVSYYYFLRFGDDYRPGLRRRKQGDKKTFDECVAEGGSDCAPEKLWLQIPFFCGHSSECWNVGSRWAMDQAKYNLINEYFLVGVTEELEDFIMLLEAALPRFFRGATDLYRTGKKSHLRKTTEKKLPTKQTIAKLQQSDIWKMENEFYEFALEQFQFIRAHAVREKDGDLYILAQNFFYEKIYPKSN
Assay: Inhibition of sulfate transfer by HS 2-O-ST from CHO cells
Format: functional, cell-based
Details: concentration not given here

inhibition | Structure (SMILES)
84% | CCC(CC)C(=O)N1C[C@@H](C(=O)O)[C@H](N=C(N)N)[C@H](O)[C@H]1NC(C)=O
76% | CC(=O)N[C@H]1NC[C@@H](C(=O)O)[C@H](N=C(N)N)[C@@H]1O
